Measurements: patent US10266484B2, “Biodegradable lipids for the delivery of active agents” (ALNYLAM PHARMACEUTICALS, INC., priority 2010, dated 2019)

How the values were obtained:
[1] = Concentration of mono-acid and di-acid metabolites in the liver of mice; assay type: in vivo, mice (C57BL); details: 0.3 mg/kg intravenous
Description: (§1) Male mice (C57BL, 20-30 g) were separated into four groups and administered (intravenously) either Compound 1, 2 or 3 of the present invention, or a Reference Lipid, as shown below in Table 20.
(§2) The mice were not fasted. Blood, liver and spleen samples were collected (two samples per time point per group) at 0.17, 8, 24, 72, 168, 336 and 672 hours post dose.
The concentration of these metabolites was measured in the liver. All measurements after 24 hours (including those taken at 72, 168, 336, and 672 hours post-administration) were below the level of quantification (BLQ).

[2] = Concentration of metabolites of compounds 1-3 in the spleen of mice; assay type: in vivo, mice (C57BL)
Description: as §1, §2

[3] = Concentration of metabolites of compounds 1-3 in the plasma of mice; assay type: in vivo, mice (C57BL)
Description: as §1, §2
All measurements after 24 hours (including those taken at 72, 168, 336, and 672 hours post-administration) were below the level of quantification (BLQ).

[4] = Lipid concentration and pharmacokinetics in the liver of mice after intravenous administration; assay type: in vivo; details: mouse, male C57BL mice, lipid dose 0.3 mg/kg
Description: (§3) A study was conducted to determine the lipid profile and tissue clearance in mice for cationic lipids according to the present invention.
as §1, §2

[5] = Study to determine lipid profiles and tissue clearance in mice (overall conclusion); assay type: in vivo, mice (C57BL); details: liver, spleen and plasma (FIGS. 1, 3, 4; Tables 22, 24, 26)
Description: as §3, §1, §2

[6] = Lipid concentration and pharmacokinetics in the spleen of mice after intravenous administration; assay type: in vivo; details: mouse, male C57BL mice, lipid dose 0.3 mg/kg; for MRT last: read-out: MRT0-t (mean residence time)
Description: as §3, §1, §2

[7] = Lipid concentration and pharmacokinetics in the plasma of mice after intravenous administration; assay type: in vivo; details: mouse, male C57BL mice, lipid dose 0.3 mg/kg
Description: as §3, §1, §2

[8] = read-out: MRT0-t (mean residence time)

CCOC(=O)CCCC/C=C\CCCCCCCCC(CCCCCCCC/C=C\CCCCC(=O)OCC)OC(=O)CCCN(C)C [Compound 2]
Di-acid metabolite concentration ([1]; 24 hr post dose): BLQ
Mono-acid metabolite concentration ([1]; 24 hr post dose): BLQ
Concentration of di-acid metabolite in the spleen ([2]; 24 hr post dose): BLQ
Concentration of di-acid metabolite in the spleen ([2]; 72 hr post dose): BLQ
Concentration of mono-acid metabolite in the spleen ([2]; 72 hr post dose): BLQ
Concentration of di-acid metabolite in the spleen ([2]; 168 hr post dose): BLQ
Concentration of mono-acid metabolite in the spleen ([2]; 168 hr post dose): BLQ
Concentration of di-acid metabolite in the spleen ([2]; 336 hr post dose): BLQ
Concentration of mono-acid metabolite in the spleen ([2]; 336 hr post dose): BLQ
Concentration of di-acid metabolite in the spleen ([2]; 672 hr post dose): BLQ
Concentration of mono-acid metabolite in the spleen ([2]; 672 hr post dose): BLQ
Concentration of di-acid metabolite in the plasma ([3]; 24 hr post dose): BLQ
Concentration of mono-acid metabolite in the plasma ([3]; 24 hr post dose): BLQ
AUC [4]: 0.436 µg·h/mL
Cmax [4]: 118 ng/mL
Tissue clearance and activity compared to the Reference Lipid [5]: dramatically improved tissue clearance and activity
AUC [6]: 238 µg·h/mL
Cmax [6]: 13600 ng/mL
MRT last [6]: 11.1 h
AUC [7]: 116 µg·h/mL
Cmax [7]: 28800 ng/mL

CCCCC/C=C\C/C=C\CCCCCCCCOCC(CN(C)C)OCCCCCCCC/C=C\C/C=C\CCCCC (centres unmarked) [Reference Lipid, reference compound]
AUC [4]: 6950 µg·h/mL
Cmax [4]: 22400 ng/mL
MRT last [4, 8]: 221 h
AUC [6]: 3430 µg·h/mL
Cmax [6]: 9150 ng/mL
MRT last [6]: 230 h
AUC [7]: 63.8 µg·h/mL
Cmax [7]: 2110 ng/mL
MRT last [7, 8]: 201 h

CCCCCC/C=C\COC(=O)CCCCCCCC(CCCCCCCC(=O)OC/C=C\CCCCCC)OC(=O)CCCN(C)C [Compound 1, di((Z)-non-2-en-1-yl) 9-((4-(dimethylamino)butanoyl)oxy)heptadecanedioate]
Di-acid metabolite concentration ([1]; 24 hr post dose): BLQ
Mono-acid metabolite concentration ([1]; 24 hr post dose): BLQ
Concentration of di-acid metabolite in the spleen ([2]; 8 hr post dose): BLQ
Concentration of di-acid metabolite in the spleen ([2]; 24 hr post dose): BLQ
Concentration of mono-acid metabolite in the spleen ([2]; 24 hr post dose): BLQ
Concentration of di-acid metabolite in the spleen ([2]; 72 hr post dose): BLQ
Concentration of mono-acid metabolite in the spleen ([2]; 72 hr post dose): BLQ
Concentration of di-acid metabolite in the spleen ([2]; 168 hr post dose): BLQ
Concentration of mono-acid metabolite in the spleen ([2]; 168 hr post dose): BLQ
Concentration of di-acid metabolite in the spleen ([2]; 336 hr post dose): BLQ
Concentration of mono-acid metabolite in the spleen ([2]; 336 hr post dose): BLQ
Concentration of di-acid metabolite in the spleen ([2]; 672 hr post dose): BLQ
Concentration of mono-acid metabolite in the spleen ([2]; 672 hr post dose): BLQ
Concentration of di-acid metabolite in the plasma ([3]; 8 hr post dose): BLQ
Concentration of mono-acid metabolite in the plasma ([3]; 8 hr post dose): BLQ
Concentration of di-acid metabolite in the plasma ([3]; 24 hr post dose): BLQ
Concentration of mono-acid metabolite in the plasma ([3]; 24 hr post dose): BLQ
AUC [4]: 4.59 µg·h/mL
Cmax [4]: 1140 ng/mL
Tissue clearance and activity compared to the Reference Lipid [5]: dramatically improved tissue clearance and activity
AUC [6]: 42 µg·h/mL
Cmax [6]: 7460 ng/mL
MRT last [6]: 2.8 h
AUC [7]: 155 µg·h/mL
Cmax [7]: 38800 ng/mL

COC(=O)CCCCCCC/C=C\CCCCCCCCC(CCCCCCCC/C=C\CCCCCCCC(=O)OC)OC(=O)CCCN(C)C [Compound 3]
Di-acid metabolite concentration ([1]; 8 hr post dose): BLQ
Mono-acid metabolite concentration ([1]; 8 hr post dose): BLQ
Di-acid metabolite concentration ([1]; 24 hr post dose): BLQ
Mono-acid metabolite concentration ([1]; 24 hr post dose): BLQ
Concentration of mono-acid metabolite in the spleen ([2]; 24 hr post dose): BLQ
Concentration of mono-acid metabolite in the spleen ([2]; 72 hr post dose): BLQ
Concentration of mono-acid metabolite in the spleen ([2]; 168 hr post dose): BLQ
Concentration of mono-acid metabolite in the spleen ([2]; 336 hr post dose): BLQ
Concentration of di-acid metabolite in the spleen ([2]; 672 hr post dose): BLQ
Concentration of mono-acid metabolite in the spleen ([2]; 672 hr post dose): BLQ
Concentration of mono-acid metabolite in the plasma ([3]; 8 hr post dose): BLQ
Concentration of mono-acid metabolite in the plasma ([3]; 24 hr post dose): BLQ
Cmax [4]: 208 ng/mL
Tissue clearance and activity compared to the Reference Lipid [5]: dramatically improved tissue clearance and activity
AUC [6]: 18.7 µg·h/mL
Cmax [6]: 4370 ng/mL
MRT last [6]: 0.7 h
AUC [7]: 122 µg·h/mL
Cmax [7]: 30600 ng/mL
